Patent US11141389B2, “Agents that inhibit NGLY1 and methods of use thereof” (The Board of Trustees of the Leland Stanford Junior …, priority 2017, dated 2021)
Read-outs that look alike come from different tables or passages of the source. Residues, ends and D or L forms follow the SMILES beside them. *: point of attachment. Cbz = O=C(OCc1ccccc1)*; CH2F = FC*

Assays:
NGly1 [1] = biological target: T1, NGly1 (Homo sapiens, UniProt Q96IV0); assay: Cresswell assay (ddVenus fluorescence on deglycosylation by NGly1) in stably transfected K562 cells; assay type: cell-based; set-up: endogenous in cells; host or cells: K562 cells stably transfected with the ddVenus reporter; settings: for IC50: K562 ddVenus cells, read-out: IC50 (reduction of fluorescence)
T1 sequence (Q96IV0 1-654): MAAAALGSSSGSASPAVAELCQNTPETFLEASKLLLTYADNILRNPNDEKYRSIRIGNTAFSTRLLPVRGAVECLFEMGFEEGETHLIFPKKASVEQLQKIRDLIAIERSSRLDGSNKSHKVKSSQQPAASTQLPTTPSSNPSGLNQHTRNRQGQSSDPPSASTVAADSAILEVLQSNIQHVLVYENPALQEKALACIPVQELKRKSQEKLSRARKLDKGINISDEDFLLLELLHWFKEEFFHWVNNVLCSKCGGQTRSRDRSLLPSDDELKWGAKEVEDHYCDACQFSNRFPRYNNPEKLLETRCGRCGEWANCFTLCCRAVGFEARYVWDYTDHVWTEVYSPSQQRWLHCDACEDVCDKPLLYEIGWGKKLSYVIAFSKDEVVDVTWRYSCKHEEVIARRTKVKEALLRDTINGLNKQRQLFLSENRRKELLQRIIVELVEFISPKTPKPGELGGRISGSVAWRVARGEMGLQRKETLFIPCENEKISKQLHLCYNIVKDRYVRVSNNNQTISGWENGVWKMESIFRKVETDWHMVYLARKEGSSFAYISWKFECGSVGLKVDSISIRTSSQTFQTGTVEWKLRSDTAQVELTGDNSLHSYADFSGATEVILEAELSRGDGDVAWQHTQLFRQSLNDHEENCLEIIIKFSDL
Source text: The assay used was a modified version of the fluorimetric assay first described by the Cresswell lab in 2011. Prepared by the Steinmetz lab, a stably transfected K562 cell line was used. Mutated to misfold and contain a site for N-glycosylation, the expressed ddVenus would only properly fold, and thus fluoresce, upon deglycosylation by NGly1 and concurrent conversion of the glycosylated asparagine residue to aspartic acid (FIG. 4A). Thus inhibition of NGly1 would not activate fluorescence in this assay. With this method a library of about 600 cysteine-protease inhibitor-like compounds were screened. Six hits were found, all of which were peptide-derived structures with an electrophilic warhead consisting of either a vinyl sulfone or epoxyketone (FIG. 4B).
Screen of ˜600 compounds with the Cresswell Assay. Screens were performed clear, V-bottom 96-well plates. Plates were prepared with negative control 2 μL DMSO (A1) and positive control 1 μL DMSO+1 μL 10 mM Z-VAD-fmk (final conc. 100 uM Z-VAD-fmk; A12-H12). Wells A2-A11 contained 1 μL DMSO, the remaining wells contained 1 μL of 1 mM stocks of compounds from the library.
100 μL of suspended K562 ddVenus cells were added to the plate at 1×10^6 cells/mL. Wells A1-A12 contained cells in growth media. The remaining wells contained cells in growth media supplemented 100 uM carfilzomib.
The mean of fluorescence in FL1 was plotted for each well.
Z-factor for the assay ranged between 0.38-0.85.

[2] = system: multiple myeloma cell lines; assay: Potentiation of proteasome inhibition in multiple myeloma cell lines; assay type: cell-based
Source text: Considering the effect of NGly1 KO or knockdown for proteasome inhibitor potentiation, we hoped to find the same effect through the use of a small molecule inhibitor of NGly1. Attempts to use Z-VAD-fmk to potentiate proteasome inhibition in multiple myeloma cell lines were unsuccessful, possibly due to its activity as a potent pan-caspase inhibitor.

Nrf1 [3] = assay: Immunoblot of Nrf1 processing in Nrf1 overexpressing HEK cells; assay type: cell-based, Human; settings: compound before carfilzomib
Source text: In a second attempt, we used Nrf1 overexpressing HEK cells and applied the small molecule Z-VAD-fmk (FIG. 1B) to inhibit NGly1 before treating the cells with carfilzomib. […] The higher abundance of the p120 band indicates the existence of the N-glycosylated form of Nrf1 as the main species in cells treated with Z-VAD-fmk. […] Thus, the incorrect processing of Nrf1 that we observed in cells treated with Z-VAD-fmk results from inhibition of NGly1 and not from caspase inhibition.
Nrf-3× Flag overexpressing HEK cells (RDB-2867; a kind gift from Senthil Radhakrishnan, Virginia Commonwealth University) were obtained by cloning Human Nrf1 coding region along with a C-terminal 3× Flag sequence into pcDNA3.1+ (Invitrogen, Carlsbad, Calif.). Cells were grown in Dulbecco's modified Eagle's medium (DMEM) supplemented with 10% fetal bovine serum (Clontech Laboratories), penicillin, and streptomycin (Fisher Scientific) at 37° C. in 5% CO2.
Immunoblot Analysis. Cells were lysed in RIPA buffer (50 mM Tris [pH 7.4], 150 mM NaCl, 1% NP40, 1% Na. Deoxycholate, 0.1% SDS, and 1 mM EDTA) supplemented with protease and phosphatase inhibitor cocktail (Pierce). For detecting Nrf1 a rabbit monoclonal antibody raised against the N terminus (D5B10, Cell Signaling) was used. Other immunoblots were performed with antibodies specific for Flag tag (Sigma-Aldrich) and β-actin (Cell Signaling).

Nrf1 [4] = assay: Confocal imaging of Nrf1 localization in Nrf1 overexpressing HEK cells; assay type: cell-based, Human
Source text: We further used confocal microscopy to visualize the localization of Nrf1 in MEFs and Nrf1 overexpressing HEK cells before and after treatment with carfilzomib (FIGS. 2B and C). In absence of carfilzomib Wt and NGly1^−/− MEFs show Nrf1 (in white) in low abundance and mainly in the cytosol (FIG. 2B). After treating the cells with carfilzomib for several hours, wt MEFs show Nrf1 in the nucleus whereas NGly1^−/− MEFs only show a higher abundance of Nrf1 in the cytosol. […] Untreated cells show Nrf1 mainly in the cytosol around the ER. […] Taking all the results in account we conclude that functioning NGly1 is required to activate Nrf1.
Immunofluorescence followed by confocal imaging. MEFs and Nrf-3× Flag overexpressing HEK cells were grown to 80% confluency on cover slips. Cells were treated with NGLy1-, caspase-, and proteasome inhibitors as indicated and allowed to recover in fresh media for one hour before cells were fixed using 100% ice cold methanol. Cells were treated with a primary rabbit monoclonal antibody raised against the N-terminus of Nrf1 (D5B10, Cell Signaling) and a secondary polyclonal Alexa Fluor0647 AffiniPure Fab Fragment Goat Anti-Rabbit IgG (H+L) (Jackson Immuno Research). […] Images were analyzed using Imaris analysis software (version). […]

Nrf1 [5] = assay: 3xPSMA4-ARE dual luciferase reporter assay in Nrf1 overexpressing HEK cells; assay type: cell-based, Human; settings: compound prior to carfilzomib
Method: The same experiment was performed in Nrf1 overexpressing HEK cells in which NGly1 was inhibited by Z-VAD-fmk prior to incubation with carfilzomib. The caspase inhibitor QVD-OPh served as control to out rule that observed effect resulted from caspase inhibition.
(§1) Luciferase Assays. The construct 3xPSMA4-ARE-Luc (RDB-2415; a kind gift from Senthil Radhakrishnan, Virginia Commonwealth University) was described previously. Briefly, an oligo (5′-[…] […] […] […] […] […] […]-3′) (SEQ ID NO: 10) containing three copies of a putative ARE (shown in uppercase) derived from the first intron of the human PSMA4 gene was annealed to its corresponding reverse-complement oligo and cloned into pGL3-promoter vector (Promega). The promoter reporter was generated by inserting this construct upstream of a minimal SV40 promoter, driving the expression of a firefly luciferase.
Cells were transiently transfected with the firefly (promoter reporters) and renilla luciferase (pRL-TK; Promega) constructs along with effector plasmid as required. Cells were treated with compoubds or vehicle control for 12 hours. Afterwards cells were lysed in the luciferase assays were performed using the dual luciferase reporter assay system (E1910; Promega) according to the instructions from the manufacturer. The firefly luciferase activity was normalized to renilla luciferase activity for all experiments.

NGly1 [6] = biological target: T1, NGly1; assay: Gel shift of RNAse B exposed to recombinant Ngly1; assay type: biochemical; settings: gel electrophoresis, in the presence of the compound
Source text: To detect direct inhibition of NGly1 by WRR139, the mass shift of RNAse B exposed to recombinant Ngly1 was observed by gel electrophoresis. In the presence of Ngly1, RNAse B was fully converted from its glycosylated band at pXXX to a deglycosylated protein at pXXX (FIG. 4D).

caspases 3/7 = assay: Caspase 3/7 inhibition assay (Caspase-Glo, staurosporine-induced U266 cells); assay type: cell-based; settings: staurosporine 1 μM, 8 hours
Method: We were further interested to see whether this molecule would also hit caspases, similar to the known Ngly1 inhibitor Z-VAD-fmk. […] Inhibition of caspases 3/7 was not observed until a concentration of about 10 μM was reached. In addition, the relative activity was not lowered below the range observed by induced apoptosis
Caspase 3/7 inhibition assay. 1 million U266 cells were suspended in 10 mL RPMI 15% BSA+PS, and plated into a flat-bottom, white-walled 96-well plate (100 μL per well). The plate was incubated at 37° C. overnight. The following day, cells were treated with staurosporine (apoptosis inducer, final concentration 1 μM), WRR139 or Z-VAD-fmk (at final concentrations shown) or DMSO to a final concentration of 2% DMSO (v/v) respectively. The plate was incubated for 8 hours at 37° C. Caspase-Glo kit reagent (company details) was prepared as per instruction from the manufacturer and after equilibration to 23° C. […] of the reagent was added to each well. […] Caspase inhibition was calculated by subtracting background (signal from media containing no cells) and comparison to signal from cells with induced apoptosis (staurosporine only).

MEF cells = assay: Viability of MEF NGly1-/- versus MEF WT with carfilzomib (WST-1); assay type: cell-based, Mouse; settings: 24 h incubation, doses 5-100 nM
K562 cells = assay: Carfilzomib sensitivity of CRISPRi-knockdown K562 cell lines; assay type: cell-based
Method: Carfilzomib sensitivity of CRISPRi-knockdown k562 cell lines. Carfilzomib dissolved in DMSO at a concentration of 10 mM was used freshly or stored at −80° C. for no longer than a month without repeated freeze-thaw cycles. K562 cells were seeded at a density of 0.2 million cells/ml in 100 μl of RPMI medium in each well of a 96-well plate for 18 hours before treatment. The next day, serial-diluted Carfilzomib or DMSO was added to the cells with a final concentration of DMSO of 0.1% (v/v) in each well. After 48 hours of incubation at 37° C., the plate was retrieved and stained with a calcein-based LIVE/DEAD® Viability/Cytotoxicity Kit (Thermo Fisher Scientific), according to the manufacturer's instruction. The cells were then counted on an Accuri C6 flow cytometer (BD Biosciences, CA, USA). A total of 10,000 events was collected for each well. The viability was calculated as the percent of calcein-positive cells in each Carfilzomib-treated sample, normalized to that of the DMSO-treated vehicle control.

Nrf1 [7] = assay: 3xPSMA4-ARE dual luciferase reporter assay in MEFs; assay type: cell-based, Mouse; settings: 12 hour incubation
Source text: According to the theory the active form (p110) of Nrf1 that translocates to the nucleus and activates proteasome genes, is produced upon removal of the N-glycans. Using a construct in which three copies of the antioxidant respond element (ARE) of the human PSMA4 gene were inserted upstream of a SV40 promoter that drives the expression of firefly luciferase in a dual luciferase reporter assay, where plasmids expressing renilla luciferase were used as internal transfection control, we compared the reporter activity in NGly1^−/− MEFs and Wt MEFs after treatment with carfilzomib.
as §1
Cells were transiently transfected with the firefly (promoter reporters) and renilla luciferase (pRL-TK; Promega) constructs along with effector plasmid as required. […]

Proteasome = settings: blood and PBMCs, cited from earlier work
[8] = patients; cited from earlier work

Method for H929 cells: Cell survival experiments using the Cell Titer-Glo 2.0 assay were performed in opaque white flat-bottomed 96-well plates. The cells (1.0-2.0×10^4 in 100 μL fresh media) were treated under the desired conditions and incubated for 24 or 48 h before addition of 100 μL assay reagent. Viability was calculated as percent signal compared to vehicle treated cells. Regression analysis and IC50 calculations were performed with GraphPad Prism 7.0.
U266 and H929: U266 or H929 cells were seeded at a density of 0.1 million cells/mL in RPMI medium (100 μL per well). The following day, carfilzomib, DMSO, or WRR139 were added in DMSO to final concentrations as shown for a maximum final concentration of 1% DMSO (v/v). After 48 h of incubation at 37° C. with 5% CO2, the plate was retrieved and treated with the Cell Titer-Glo 2.0 assay. After 10 minutes incubation the plate was analyzed by measuring the luminescence using a Spectra max®i3x (VWR, Australia) plate reader.

Structure (SMILES): COC(=O)C[C@H](NC(=O)[C@H](C)NC(=O)[C@@H](NC(=O)OCc1ccccc1)C(C)C)C(=O)CF [Z-VAD-fmk, carbobenzoxy-valyl-alanyl-aspartyl-[O-methyl]-fluoromethylketone] (Cbz-Val-Ala-Asp(OMe)-CH2F)
- IC50 (NGly1 [1]): 4.4 µM
- potentiation of proteasome inhibition [2]: unsuccessful
- Nrf1 processing (p120/p110 bands) (Nrf1 [3]): abnormal processing of Nrf1
- localization of Nrf1 (Nrf1 [4]; compound prior to incubation with carfilzomib): high abundance of Nrf1 in the cytosol
- reporter activity (Nrf1 [5]): did not show an increased reporter activity
- deglycosylation of RNAse B by recombinant Ngly1 (NGly1 [6]): only the original band remains, with no conversion to the deglycosylated form

Structure (SMILES): Cc1ccc(S(=O)(=O)/C=C/C(=O)N[C@@H](CCc2ccccc2)C(=O)NCCC(C)C)cc1 [WRR139]
- NGly1 inhibition in validation of the hits (NGly1 [1]; FIG. 4C): inhibit NGly1 in a dose-dependent manner
- IC50 (NGly1 [1]): 5.5 µM
- increase in killing / reduction of LD50 of carfilzomib (H929 cells; H929, WRR139 plus carfilzomib vs carfilzomib alone): 2 fold
- cell survival, co-inhibition with carfilzomib compared to carfilzomib alone (H929 cells; H929, after 24 hours): significantly decreased cell survival
- concentration at which inhibition of caspases 3/7 is first observed (caspases 3/7): about 10 μM
- increase in killing / reduction of LD50 of carfilzomib (U266 cells; U266, WRR139 plus carfilzomib vs carfilzomib alone): 2.6 fold
- cell survival, co-inhibition with carfilzomib compared to carfilzomib alone (U266 cells; U266, after 24 hours): significantly decreased cell survival
- deglycosylation of RNAse B by recombinant Ngly1 (NGly1 [6]): only the original band remains, with no conversion to the deglycosylated form

Structure (SMILES): CC(C)C[C@H](NC(=O)[C@H](CCc1ccccc1)NC(=O)CN1CCOCC1)C(=O)N[C@@H](Cc1ccccc1)C(=O)N[C@@H](CC(C)C)C(=O)[C@@]1(C)CO1 [carfilzomib]
- sensitivity of NGly1-/- cells relative to MEF WT (MEF cells): over 2 fold
- LD50 (K562 cells; K562, dCAS9 knockdowns of Nrf1 or NGly1 (sgNrf1-A, sgNrf1-B, sgNGly1)): 20 nM
- LD50 (K562 cells; K562, no sgRNA or control sgRNA): 40 nM
- reporter (PSM) activity (Nrf1 [7]; NGly1-/- MEFs): no response
- reporter (PSM) activity (Nrf1 [7]; Wt MEFs): increase in PSM activity
- inhibition of proteasome activity (Proteasome; 15 mg/m^2, after the first dose): > 75%
- inhibition of proteasome activity (Proteasome; after five doses): > 90%
- localization of Nrf1 (Nrf1 [4]; carfilzomib alone): the majority of Nrf1 was observed in the nucleus

Structure (SMILES): CC(C)C[C@H](NC(=O)[C@H](Cc1ccccc1)NC(=O)c1cnccn1)B(O)O [bortezomib]
- incidence of neuropathy [8]: 30-60%
